Experimental findings from patent US4908360A, “1-aminoalkyl-3-oxysubstituted-4-aryl-1,3,4,5-tetr ahydro-2H-1,3-benzodiazepine-2-ones” (Hoechst-Roussel Pharmaceuticals Inc., priority 1988, dated 1990) are described below.

Test [1] deals with 2-phenyl-1,4-benzoquinone-induced writhing in mice. Description: 2-phenyl-1,4-benzoquinone-induced writhing test in mice (analgesia). The class given is in vivo. The note with it: subcutaneous. The source says: Compounds of the present invention are useful as analgesic agents due to their ability to alleviate pain in mammals. […] Exptl. Biol. Med. 95,729 (1957)].
For orientation: In writhing tests, fewer writhes than in controls are read as antinociception.

Test [2] has as its target T1, nitrendipine binding (ventricle membranes) (Rattus norvegicus, UniProt P22002).
T1 construct: These resuspension and recentrifugation steps are repeated twice more to wash the ventricle membranes; from tissue; host or cells: heart ventricle membranes of male Wistar rats
Description: nitrendipine binding assay (calcium ion antagonism), [3H]-nitrendipine, rat heart ventricle membranes. The note with it: 1 h, pH 7.4, 25° C., one hour; for Increase in [3H]-nitrendipine binding (%) at 20 µM: concentration 2.0 (moles) × 10^-5. On the set-up: species or system Male Wistar rats. The protocol: The compounds of the present invention are also useful as calcium ion antagonists which are useful to control cardiovascular activities, including potential antihypertensive activity. Calcium ion antagonism is measured in the nitrendipine binding assay.
The nitrendipine binding assay is carried out in the following manner. The reagents employed are (1) 0.5 M tris Buffer, pH 7.4, prepared by combining 66.1 g of Tris HCl, 9.7 g of Tris base in 1 liter of distilled water and thereafter making a 1:10 dilution in distilled water; (2) [5-methyl-^3H]-Nitrendipine (70-81 Ci/mmol, obtained from New England Nuclear; and (3) Nifedipine. Tissue is prepared as follows. Male Wistar rats are killed by decapitation, hearts are removed and the ventricles are dissected away from the aorta and aortic tissue. The ventricles are rinsed and homogenized in 19 volumes of ice-cold 0.05 M Tris buffer, pH 7.4 using a Tekmar homogenizer. The homogenate is filtered through four layers of cheese cloth and centrifuged at 1,000 g for 10 minutes. The supernatant is decanted and recentrifuged at 48,000 g for 20 minutes. The resulting pellet is resuspended in the original volume of Tris buffer and recentrifuged at 48,000 g for 20 minutes. These resuspension and recentrifugation steps are repeated twice more to wash the ventricle membranes. The final pellet is resuspended in the original volume of 0.05 M Tris buffer. The assay itself employs 500 ul of ventricle membrane suspension; 50 ul of 0.5 M Tris buffer, pH 7.4; […] [^3 H]-nitrendipine; 20 μl of candidate drug; 380 μl of water in a test tube and is carried out in a darkened room. The test tubes are incubated for one hour at 25° C. […] The filters are washed three times with 5 ml of ice-cold 0.05 M Tris buffer, pH 7.4 and counted in 10 ml of Liquiscint scintillation cocktail. Specific binding is determined by the difference of total binding and binding in the presence of 0.1 μM nifedipine and is roughly 70-75% of the total binding. […] IC50 values for the competing drug are calculated by log-probit analysis of the data.

Structures are written as SMILES.

T1 sequence (P22002 whole entry, other chains not shown): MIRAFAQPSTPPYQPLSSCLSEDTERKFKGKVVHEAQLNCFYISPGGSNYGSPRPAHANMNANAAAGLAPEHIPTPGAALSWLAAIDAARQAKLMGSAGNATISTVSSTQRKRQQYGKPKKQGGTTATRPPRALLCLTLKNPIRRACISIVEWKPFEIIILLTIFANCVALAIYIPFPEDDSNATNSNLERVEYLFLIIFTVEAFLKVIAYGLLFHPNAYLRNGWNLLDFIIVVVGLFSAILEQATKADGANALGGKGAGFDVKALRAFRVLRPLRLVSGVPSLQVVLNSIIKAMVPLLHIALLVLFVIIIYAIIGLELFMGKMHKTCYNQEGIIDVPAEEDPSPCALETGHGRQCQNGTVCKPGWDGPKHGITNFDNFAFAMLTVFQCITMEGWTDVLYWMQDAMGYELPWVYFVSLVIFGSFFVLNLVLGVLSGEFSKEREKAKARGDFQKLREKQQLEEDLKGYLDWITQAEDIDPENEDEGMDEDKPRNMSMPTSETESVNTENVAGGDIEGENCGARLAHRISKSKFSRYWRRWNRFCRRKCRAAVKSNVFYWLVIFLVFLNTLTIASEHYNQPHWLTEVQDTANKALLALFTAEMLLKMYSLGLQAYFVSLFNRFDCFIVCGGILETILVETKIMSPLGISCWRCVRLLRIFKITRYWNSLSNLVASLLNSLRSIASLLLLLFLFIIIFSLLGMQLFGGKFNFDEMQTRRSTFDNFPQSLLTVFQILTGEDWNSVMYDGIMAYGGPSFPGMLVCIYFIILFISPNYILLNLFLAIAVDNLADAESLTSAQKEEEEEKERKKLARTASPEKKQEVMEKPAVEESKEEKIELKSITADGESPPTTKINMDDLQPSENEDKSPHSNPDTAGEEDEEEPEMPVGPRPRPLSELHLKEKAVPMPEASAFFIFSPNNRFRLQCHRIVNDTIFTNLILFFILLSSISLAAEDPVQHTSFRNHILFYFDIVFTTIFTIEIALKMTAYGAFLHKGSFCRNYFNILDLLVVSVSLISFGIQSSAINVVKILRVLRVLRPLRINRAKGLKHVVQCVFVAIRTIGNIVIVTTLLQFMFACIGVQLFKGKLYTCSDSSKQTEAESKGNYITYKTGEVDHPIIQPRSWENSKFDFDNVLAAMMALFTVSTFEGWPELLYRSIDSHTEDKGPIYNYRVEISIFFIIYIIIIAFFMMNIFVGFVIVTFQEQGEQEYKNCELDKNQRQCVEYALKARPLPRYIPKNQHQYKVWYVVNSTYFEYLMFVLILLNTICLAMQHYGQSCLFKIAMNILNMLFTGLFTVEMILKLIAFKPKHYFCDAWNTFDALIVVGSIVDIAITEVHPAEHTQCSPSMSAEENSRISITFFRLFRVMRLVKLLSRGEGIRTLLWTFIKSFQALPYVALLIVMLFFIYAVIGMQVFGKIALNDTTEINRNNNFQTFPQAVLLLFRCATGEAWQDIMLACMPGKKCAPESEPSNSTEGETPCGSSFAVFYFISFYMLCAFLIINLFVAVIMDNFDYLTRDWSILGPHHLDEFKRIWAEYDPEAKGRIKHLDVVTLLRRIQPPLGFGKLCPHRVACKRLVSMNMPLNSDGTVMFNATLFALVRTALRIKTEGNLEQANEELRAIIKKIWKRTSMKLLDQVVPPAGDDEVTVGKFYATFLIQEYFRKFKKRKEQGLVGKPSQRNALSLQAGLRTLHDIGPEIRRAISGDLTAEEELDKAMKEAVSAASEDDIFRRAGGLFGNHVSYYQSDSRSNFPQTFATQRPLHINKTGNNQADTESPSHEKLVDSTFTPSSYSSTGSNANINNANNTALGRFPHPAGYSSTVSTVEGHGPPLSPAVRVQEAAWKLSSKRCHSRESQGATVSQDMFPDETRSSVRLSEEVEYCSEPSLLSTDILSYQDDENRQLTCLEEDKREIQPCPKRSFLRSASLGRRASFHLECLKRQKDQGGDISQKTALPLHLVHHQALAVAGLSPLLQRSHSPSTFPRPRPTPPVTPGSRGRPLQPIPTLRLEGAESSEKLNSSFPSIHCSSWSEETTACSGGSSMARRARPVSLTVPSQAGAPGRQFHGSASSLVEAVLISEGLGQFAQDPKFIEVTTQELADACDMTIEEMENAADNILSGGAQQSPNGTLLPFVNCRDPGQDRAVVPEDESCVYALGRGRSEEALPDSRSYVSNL
T1 sequence (P54290 25-945 partner limits assumed, other chains not shown): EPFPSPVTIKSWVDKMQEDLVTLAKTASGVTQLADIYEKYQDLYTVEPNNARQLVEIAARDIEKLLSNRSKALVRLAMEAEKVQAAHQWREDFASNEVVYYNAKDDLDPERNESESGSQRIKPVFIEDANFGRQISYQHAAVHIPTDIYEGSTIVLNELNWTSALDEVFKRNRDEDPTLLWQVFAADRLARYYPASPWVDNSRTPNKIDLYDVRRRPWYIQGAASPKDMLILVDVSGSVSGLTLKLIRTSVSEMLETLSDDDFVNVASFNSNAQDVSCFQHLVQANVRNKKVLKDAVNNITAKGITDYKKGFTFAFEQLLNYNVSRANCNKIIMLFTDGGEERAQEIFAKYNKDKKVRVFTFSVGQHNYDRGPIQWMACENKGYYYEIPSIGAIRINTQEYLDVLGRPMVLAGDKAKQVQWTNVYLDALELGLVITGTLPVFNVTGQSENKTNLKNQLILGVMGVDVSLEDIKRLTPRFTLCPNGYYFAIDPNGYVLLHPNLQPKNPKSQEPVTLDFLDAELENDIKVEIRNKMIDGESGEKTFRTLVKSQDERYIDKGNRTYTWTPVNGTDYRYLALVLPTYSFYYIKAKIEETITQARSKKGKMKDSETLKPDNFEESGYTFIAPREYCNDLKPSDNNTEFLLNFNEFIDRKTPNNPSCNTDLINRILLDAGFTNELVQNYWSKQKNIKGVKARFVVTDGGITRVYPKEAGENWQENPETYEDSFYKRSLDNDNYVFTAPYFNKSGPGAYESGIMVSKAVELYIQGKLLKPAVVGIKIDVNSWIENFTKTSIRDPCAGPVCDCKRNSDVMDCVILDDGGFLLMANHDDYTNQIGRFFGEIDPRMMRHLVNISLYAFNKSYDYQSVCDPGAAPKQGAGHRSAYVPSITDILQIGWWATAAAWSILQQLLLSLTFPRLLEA
T1 sequence (P54290 946-1091 partner limits assumed, other chains not shown): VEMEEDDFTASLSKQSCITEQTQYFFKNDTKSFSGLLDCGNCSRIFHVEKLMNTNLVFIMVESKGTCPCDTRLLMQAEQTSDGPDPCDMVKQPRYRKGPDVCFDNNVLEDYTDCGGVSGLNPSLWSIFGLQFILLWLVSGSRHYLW

Regarding `CON1C(=O)N(CCN(C)C)c2ccccc2CC1c1ccccc1` (racemic) [(±) -1-[2-(N,N-dimethylamino)ethyl]-3-methoxy-4-phenyl-1,3,4,5-tetrahydro-2H-1,3-benzodiazepine-2-one], in test [1] (20 mg/kg of body weight), the “Inhibition in Writhing (%)” value was found to be 37%. Also, in test [2], the Increase in [3H]-nitrendipine binding (%) at 20 µM is 27.6%.
For the molecule `COc1ccc([C@@H]2Sc3ccccc3N(CCN(C)C)C(=O)[C@@H]2OC(C)=O)cc1` [diltiazem, reference compound], in test [2] (concentration 1.0 (moles) × 10^-5, standard), the Increase in [3H]-nitrendipine binding (%) at 10 µM is 85%.
As for `CON1C(=O)N(CCCN(C)C)c2ccccc2CC1c1ccccc1` (racemic) [(±) -1-[3-(N,N-Dimethylamino)propyl]-3-methoxy-4-phenyl-1,3,4,5-tetrahydro-2H-1,3-benzodiazepine-2-one], the “Inhibition in Writhing (%)” value in test [1] (20 mg/kg of body weight) came to 37%. Further, in test [2], the Increase in [3H]-nitrendipine binding (%) at 20 µM was determined as 25.7%.
For the molecule `CN1CC[C@@]23CCCC[C@@H]2[C@@H]1Cc1ccc(O)cc13` [dextrorphan, reference compound], in test [1] (15.1 mg/kg of body weight), the “Inhibition in Writhing (%)” value is on record as 50%.
